Source: a melting point compilation (Tetko et al.; mined from patent text by program, amines drawn as free bases though some values may be those of a salt)

melting point	SMILES
208 to 209 °C	Cc1oc(-c2ccccc2)nc1COc1ccc2cc(CCCC3SC(=O)NC3=O)ccc2c1 (configuration not stated)
89.2 °C	CCCCOn1nnc2ccc(C(O)c3ccccc3)cc21 (configuration not stated)
146 to 147 °C	CCS(=O)(=O)c1cc2c(c(C(=O)Cl)c1)OCCO2
212 to 214 °C	CC(=O)N1CCN(c2ccc(O)cc2Br)CC1
132 to 134 °C	CCOC(=O)c1cc(C(=O)c2ccccc2Cl)c(-n2c(C)nnc2CNC(=O)Nc2cccc(OC)c2)s1
184 to 186 °C	COc1ccc(S(=O)(=O)N2C(=O)C(O[Si](C)(C)C)(c3ccccc3F)c3cc(Cl)ccc32)c(OC)c1 (configuration not stated)
304 °C	CCOC(=O)CNC(=O)Nc1cnc(Nc2ccc(Cl)c(Cl)c2)nc1NC
60 to 62 °C	CCCCCCCCN=C=O
169 to 171 °C	COc1ccc(NC(=O)c2ccc(-c3ccc(-c4nc(N)no4)cc3C)cc2)cc1N1CCN(C)CC1
58 to 63 °C	CCCCCCCCC1(CCCCCCCC)c2cc(N)ccc2-c2ccc(N)cc21
192 to 193 °C	COc1cccc(Nc2cc(-c3nnc(C)o3)ccn2)c1
79 to 81 °C	N#CC(CCC1C2CCN1CC2)(c1ccccc1)c1ccccc1 (configuration not stated)
84 to 86 °C	COC1=C(C)C(=O)C(OC)=C(CCCCCC2=C(OC)C(=O)C(C)=C(OC)C2=O)C1=O
109 to 113 °C	CC(c1oc2ccccc2c(=O)c1-c1ccccc1)n1nc(C#CC(C)(C)O)c2c(N)ncnc21 (configuration not stated)
189 to 190 °C	CN(C(=O)c1ccc(Cn2ccc3ncnc-3c2)o1)C1CCCCC1
53 °C	CN1CCC(OC(c2ccccc2)c2nc3ccccc3[nH]2)C1 (configuration not stated)
97 to 99 °C	OC(CCN1CCN(c2ccc(F)cc2)CC1)COc1ccccc1 (configuration not stated)
131 °C	COC(=O)C(CSC(c1ccccc1)c1ccccc1)NC(=O)C(=O)NCCSC(c1ccccc1)c1ccccc1 (configuration not stated)
81 to 83 °C	N#CCc1ccc(OCCc2coc(-c3ccccc3)n2)cc1
137 to 139 °C	O=c1c(Cc2cccnc2)cn2c3cc(Cl)ccc3c3cc(OCCCO)cc1c32
138 to 140 °C	COCc1nc2c(N)cc(Br)cc2n1C
128 to 129 °C	Cc1nc(OCc2c(C(C)C)nnn2-c2c(Cl)cccc2Cl)ccc1N(C)S(=O)(=O)c1ccc(C(=O)O)cc1
56 to 58 °C	CCCCCCCCCCCCCCOc1ccc(CN(C(C)=O)c2cccc(CBr)c2)cc1
225 to 227 °C	Cc1c(CCC(=O)c2c[nH]c3ccccc23)ncn1C(c1ccccc1)(c1ccccc1)c1ccccc1

melting point	SMILES
123 °C	CN(CC(F)(F)F)C(=O)COc1nnc(-c2ccccc2)s1
> 280 °C	CCCCCCCCN1C=C(C)C(=c2c(C)cc(=CC=C3C=C(C(C)(C)C)C(=O)C(C(C)(C)C)=C3)cc2C)C(C)=C1
107 to 108 °C	CCCC(N)CCCCCCC(=O)O (configuration not stated)
68 to 69 °C	O=C(N[C@H]1CC[C@@H](C(=O)Oc2ccc3c(c2)CCC3)CC1)OCc1ccccc1
234 to 235 °C	Cc1cc(C(=O)N2CCC3(CC2)CSC2=C(O3)c3ccccc3C(=O)C2=O)c(C)o1
108 to 112 °C	CC1(C)[C@@H](CN2CCCC2)CC[C@@]1(C)NCC(=O)N1C[C@@H](F)C[C@H]1C#N
262 °C	COC[C@H]1CCCN1C(=O)c1ccc(-c2[nH]nc3c2C(=O)c2c(NC(=O)NN4CCOCC4)cccc2-3)s1
118 to 121 °C	CC(C)(C)c1cc(OCc2ccc(C#N)cc2)cc(C(C)(C)C)c1
101 °C	Cc1c(F)c(Oc2cc(C(F)(F)F)nn2C)nc(Oc2cc(C(F)(F)F)nn2C)c1F
158 to 159 °C	CCCOCCOc1ccc(-c2ccc3c(c2)C=C(C(=O)Nc2ccc(CN(C)C4CCOCC4)cc2)CCS3(=O)=O)c(C)c1C
209 to 210 °C	CS(=O)(=O)c1ccc(-c2cc(S(C)(=O)=O)nn2-c2ccc(F)cc2)cc1
> 290 °C	CC(C)c1[nH]c(=O)[nH]c1-c1cc(C(C)(C)C)c(O)c(C(C)(C)C)c1
204 °C	N#Cc1cnn2c(C(F)(F)F)cc(-c3cccc(Cl)c3)nc12
181 to 183 °C	CN1CCN(c2ccc(S(=O)(=O)Oc3cc(Cl)c(Cl)cc3Cl)cc2)C1=O
156 to 158 °C	NC(=O)CN1Cc2ccccc2CCC1=O
57 to 59 °C	COCCCNc1ccc([N+](=O)[O-])cc1
215 to 218 °C	Cc1ccc(S(=O)(=O)Nc2ccc(C3SC(=O)NC3=O)cc2)cc1 (configuration not stated)
130 to 131 °C	O=P(O)(O)CN(CP(=O)(O)O)c1ccccc1
151 to 153 °C	COc1cc(OC)c(C(O)=S)cc1C
81 to 82 °C	CCOC(=O)CNc1c(Br)cc(Br)cc1Br
306 °C	Cc1nc2c(O[C@@H]3c4ccccc4C[C@H]3O)cc(C(=O)O)cc2n1C (relative stereo)
189 to 191 °C	c1nc(NCCN2CCOCC2)c2sc3nc(N4CCCC4)c4c(c3c2n1)CCOC4
123 to 125 °C	COc1cc(Br)c(N)c(C(=O)/C=C/c2ccc(OC)c(F)c2)c1
185 to 187 °C	O=C(O)CCCCCc1c(-c2cccnc2)[nH]c2ccc(O)cc12

melting point	SMILES
198 to 200 °C	CCC(=O)OCC1OC(n2cnc3c(=O)[nH]c(N)nc32)C(F)C1OC(=O)CC (configuration not stated)
127 to 130 °C	CCCCNC(=O)c1cnc2ccccn2c1=O
155 to 156 °C	O=C(O)C(=O)c1ccc(OCCOc2ccc3ccccc3c2)cc1F
148 to 150 °C	O=C(C=Cc1cc(Br)c(O)c(Br)c1)N1CCc2c([nH]c3ccccc23)C1c1ccc2c(c1)OCO2 (configuration not stated)
110 to 112 °C	O=C(CI)c1cc(OCc2ccccc2)c(OCc2ccccc2)c(OCc2ccccc2)c1
92 to 93 °C	CCOc1nn(Cc2ccc(OCc3cncc(-c4ccccc4)c3)cc2)cc1CCC(=O)O
171 to 173 °C	COC(=O)c1cccc(CC2COc3ccc(OCc4nc5cc(F)ccc5s4)cc3C2O)c1 (configuration not stated)
77 to 79 °C	CNc1cnn(-c2cccnc2)c1Br
212 to 213 °C	COc1ccc(C2=NN(c3ccc4c(c3)COC4=O)C(=O)[C@H]3CC=CC[C@@H]23)cc1Cl (relative stereo)
196 to 202 °C	COc1ccc(-c2csc(C(=O)Nc3cc4ccccc4cn3)n2)cc1OC
181 °C	CCOC(=O)c1cc(-c2ccc(-c3ccco3)cc2)n(-c2ccc(S(C)(=O)=O)cc2)n1
136 to 137 °C	CCCCCCc1cc(CO)c(-c2ccccc2)c(-c2ccccc2)c1CO
148 to 150 °C	CC(O)c1nc2c(OCc3ccccc3)cccc2n1C (configuration not stated)
> 260 °C	COc1ccc2[nH]cc(-c3cc4c(OC)ncnc4[nH]3)c2c1
144 to 146 °C	O=C(O)/C(=N\OCF)c1nsc(NC(c2ccccc2)(c2ccccc2)c2ccccc2)n1
123 to 125 °C	CN1CCCCCCC1=NC(=S)Nc1ccccc1
132 to 136 °C	CCOC(=O)c1ccc(O)cc1SC
196 to 197 °C	Cc1c(CC(=O)O)c2cc(OCc3csc(-c4ccc(C(F)(F)F)cc4)n3)ccc2n1Cc1ccc(Cl)cc1
140 to 141 °C	CCCCC1C2CCCC(C2=O)C2(O)CCCCC12 (configuration not stated)
188 to 189 °C	COc1cc(C)c(C)cc1NC(=S)N1CCN(c2cc(Cl)cc(Cl)c2)CC1
268 to 270 °C	CC1(C)Oc2cc(C(=O)O)sc2[C@@H](N2CCCCC2=O)[C@@H]1O (relative stereo)
130 to 132 °C	CC1(C)Oc2ccsc2C(N2CCCC2=O)C1OC(=O)c1ccccc1 (configuration not stated)
88 to 92 °C	CC#CCOc1ccc(OCCC(=O)O)cc1
110 to 120 °C	COc1ccc(C2(CCN3CCC(O)(c4nc5ccccc5n4Cc4ccc(F)cc4)CC3)CCN(C(=O)c3cc(OC)c(OC)c(OC)c3)C2)cc1OC (configuration not stated)

melting point	SMILES
115 to 116 °C	CCCS(=O)c1cc(OCCOc2ccccc2)ccc1C (configuration not stated)
186 to 192 °C	Cc1cc(C)nc(N(C(=O)NS(C)(=O)=O)c2ccccc2)n1
166 °C	CCOc1ccc2c(c1)C(C)(c1cc(N)ccc1Cl)C(=O)N2 (configuration not stated)
201 to 203 °C	CC1=C(C(=O)OC(C)C)C(c2cccc([N+](=O)[O-])c2)n2c(cc(=O)n2C(=O)c2ccccc2)N1 (configuration not stated)
114 to 116 °C	[N-]=[N+]=NCCCc1cc(-c2ccccc2)n(-c2ccc(S(N)(=O)=O)cc2)n1
186 to 188 °C	COc1ccc2c(c1)Sc1cc(OC)c(Cl)cc1C(=O)C2
106 to 107 °C	Cc1oc(-c2ccccc2)nc1CCOc1ccc(CON=C(CCC(=O)O)c2ccccc2)cc1
122 °C	CCC1N=NC(c2ccccc2)=C(O)N1C (configuration not stated)
234 to 236 °C	O=P(O)(O)Cc1ccc2ccccc2c1
193 to 195 °C	CCn1nc(O)nc1S
141 to 143 °C	Cc1ccc(S(=O)(=O)N(C)c2ncc(Cl)cc2[N+](=O)[O-])cc1
120 to 123 °C	CC(=O)OCCOc1ncnc(NS(=O)(=O)c2ccc(C)cc2)c1CCc1ccccc1
95 to 97 °C	Oc1ccc(C2=CCCCCCC2)cc1
129 to 133 °C	COc1ccc(Cl)cc1NC(=O)[C@H]1[C@H](c2ccc(S(N)(=O)=O)cc2)C1(C)C (relative stereo)
206 °C	CCN(c1ccc(C(F)(F)F)cc1)C1CCN(c2ccc(OC[C@H]3CCn4cc([N+](=O)[O-])nc4O3)cc2)CC1
172 to 173 °C	OCCCN1CCN(C2=Nc3ccccc3Nc3ccsc32)CC1
77 to 80 °C	CC1(C)CC(S(=O)(=O)Cc2cnccc2C(F)(F)F)=NO1
188 to 190 °C	CCc1oc2ccccc2c1C(=O)NCc1ccc2c(Br)c(O)ccc2c1
141 to 142 °C	CC(C)c1nn(-c2ccc(C(F)(F)F)cn2)cc1COc1cc(CCC(=O)O)n(C)n1
138 °C	CCOC(=O)C1=C(C)N2CCNC2=C(C(=O)OCC)C1C (configuration not stated)
83 to 85 °C	CC(C)C(C(=O)O)N(C)C(=O)OC(C)(C)C (configuration not stated)
102 to 105 °C	CCNC(=O)NC[C@H](O)c1cccc(O)c1

SMILES	melting point
CCC1CC(=O)CC23CCN(C#N)C(Cc4ccc(OC)cc42)C13 (configuration not stated)	141 to 145 °C
CN1CCC23c4c5ccc(O)c4OC2C(=O)CCC3(F)C1C5 (configuration not stated)	215 to 217 °C
CN(Cc1ccc2c(Br)c(O)ccc2c1)C(=O)c1cn(C)c2ccccc12	189 to 190 °C
